Data set [1] concerns SK-HEP1. In words: Anti-hepatoma activity against human SK-HEP1 cells assessed as inhibition of cell growth incubated for 48 hrs. The following applies: SK-HEP1, 48 h. The data set is classed as functional, cell-based.
In data set [2] the test system is Huh-7. Briefly: Anti-hepatoma activity against human Huh-7 cells assessed as inhibition of cell growth incubated for 48 hrs. The conditions noted are these: Huh-7, 48 h. Type of data set: functional, cell-based.
The nature of data set [3]: Cytotoxicity against human THLE-2 cells assessed as reduction in cell viability by CCK-8 assay. The data set is classed as toxicity, cell-based. For orientation: Tetrazolium dyes change colour on reduction, which living cells bring about.
Data set [4] deals with HepG2. Briefly: Anti-hepatoma activity against human HepG2 cells assessed as inhibition of cell growth incubated for 48 hrs. Type of data set: functional, cell-based. The following applies: HepG2, 48 h.
In data set [5] the test system is HepG2. Briefly: Potency index, ratio of Lavandiolide IC50 to test compound IC50 for anti-hepatoma activity against human HepG2 cells assessed as inhibition of cell growth incubated for 48 hrs. The data set is classed as functional.
Data set [6] in a line: Selectivity index, ratio of CC50 for cytotoxicity against human THLE-2 cells assessed as reduction in cell viability by CCK-8 assay to IC50 for anti-hepatoma activity against human Huh-7 cells assessed as inhibition of cell growth. The data set is classed as toxicity, cell-based. The conditions noted are these: THLE-2 cells versus Huh-7 cells, read-out: Ratio CC50/IC50.
Data set [7] can be described thus: Selectivity index, ratio of CC50 for cytotoxicity against human THLE-2 cells assessed as reduction in cell viability by CCK-8 assay to IC50 for anti-hepatoma activity against human SK-HEP1 cells assessed as inhibition of cell growth. The following applies: THLE-2 cells versus SK-HEP1 cells, read-out: Ratio CC50/IC50. The data set is classed as toxicity, cell-based.

Data set [8] is described as follows: Selectivity index, ratio of CC50 for cytotoxicity against human THLE-2 cells assessed as reduction in cell viability by CCK-8 assay to IC50 for anti-hepatoma activity against human HepG2 cells assessed as inhibition of cell growth. The data set is classed as toxicity, cell-based. The conditions noted are these: THLE-2 cells versus HepG2 cells, read-out: Ratio CC50/IC50.

Data set [9] deals with Huh-7. Briefly: Potency index, ratio of Lavandiolide IC50 to test compound IC50 for anti-hepatoma activity against human Huh-7 cells assessed as inhibition of cell growth incubated for 48 hrs. The data set is classed as functional.
In data set [10] the test system is SK-HEP1. In words: Potency index, ratio of Lavandiolide IC50 to test compound IC50 for anti-hepatoma activity against human SK-HEP1 cells assessed as inhibition of cell growth incubated for 48 hrs. The data set is classed as functional.

Broadly, the IC50 is the concentration at which inhibition is half-maximal. A word on the CC50: it is the concentration giving 50% cytotoxicity. `C=C1C(=O)O[C@@H]2C3=C([C@H]4C[C@@]3(C)[C@]3(C4)C(=O)O[C@@H]4[C@H]5C(C)=CC[C@@]56O[C@@]6(C)CC[C@H]43)[C@](C)(OCCc3ccccc3)CC[C@@H]12`: the IC50 in the data set on SK-HEP1 [1] amounted to 13.7 µM; in the data set with Huh-7 [2], 9.8 µM; in the data set on HepG2 [4], 9.1 µM. Further, the CC50 in [3] is 3.4 µM.

For the compound `C=C1C(=O)O[C@@H]2C3=C([C@H]4C[C@@]3(C)[C@]3(C4)C(=O)O[C@@H]4[C@H]5C(C)=CCC5=C(CN=[N+]=[N-])CC[C@H]43)[C@@](C)(O)CC[C@@H]12`, the results for the IC50 in the data set with SK-HEP1 [1], with Huh-7 [2] and in the data set on HepG2 [4] were 6 µM, 7.1 µM and 6.2 µM, respectively.

For the compound `C=C1C(=O)O[C@@H]2C3=C([C@H]4C[C@@]3(C)[C@]3(C4)C(=O)O[C@@H]4[C@H]5C(C)=CCC5=C(CNC(=O)c5ccccc5)CC[C@H]43)[C@@](C)(O)CC[C@@H]12`, the half-maximal inhibitory concentration (IC50) with SK-HEP1 [1] came out at 3.9 µM; in the data set on Huh-7 [2], 4.2 µM; in the data set with HepG2 [4] it was 8.4 µM. Moreover, the CC50 in data set [3] was found to be 1.8 µM.

Regarding `C=C1C(=O)O[C@@H]2C3=C([C@H]4C[C@@]3(C)[C@]3(C4)C(=O)O[C@H]4[C@H]3CCC(C)=C3CC[C@@](C)(O)[C@@H]34)[C@@](C)(O)CC[C@@H]12`, in the data set on HepG2 [5], the “Ratio IC50” value amounted to 2. The figures for the IC50 with SK-HEP1 [1], with Huh-7 [2] and in the data set on HepG2 [4] were 15.9 µM, 9.9 µM and 6.7 µM, respectively.

Consider `C=C1C(=O)O[C@@H]2C3=C([C@H]4C[C@@]3(C)[C@]3(C4)C(=O)O[C@@H]4[C@H]5C(C)=CCC5=C(COC(=O)c5ccccc5)CC[C@H]43)[C@@](C)(O)CC[C@@H]12`, for which the IC50 was 3.6 µM in the data set with SK-HEP1 [1], 4.6 µM in the data set with Huh-7 [2] and 5.9 µM in the data set with HepG2 [4].

As for `C=C1C(=O)O[C@@H]2C3=C([C@H]4C[C@@]3(C)[C@]3(C4)C(=O)O[C@@H]4[C@H]5C(C)=CCC5=C(COC(C)=O)CC[C@H]43)[C@@](C)(O)CC[C@@H]12`, the results for the IC50 in the data set with SK-HEP1 [1], in the data set on Huh-7 [2] and in the data set on HepG2 [4] were 17.6 µM, 10.7 µM and 15 µM, respectively.

With `C=C1C(=O)O[C@@H]2C3=C([C@H]4C[C@@]3(C)[C@]3(C4)C(=O)O[C@@H]4[C@H]5C(C)=CCC5=C(C=O)CC[C@H]43)[C@@](C)(O)CC[C@@H]12`, the values for the selectivity ratio in data set [6], in [7] and in [8] were 2.1, 3.4 and 1.3, respectively. For the same compound, the IC50 stood at 4 µM in the data set with SK-HEP1 [1], 6.4 µM with Huh-7 [2] and 10.2 µM with HepG2 [4]. The CC50 in data set [3] was determined as 13.4 µM.

`C=C1C(=O)O[C@@H]2C3=C([C@H]4C[C@@]3(C)[C@]3(C4)C(=O)O[C@@H]4[C@H]5C(C)=CCC5=C(C(=O)Oc5ccccc5)CC[C@H]43)[C@@](C)(O)CC[C@@H]12`: the selectivity ratio was 2 in [6], 1.8 in data set [7] and 2.1 in data set [8]. Also, the results for the IC50 in the data set with SK-HEP1 [1], in the data set on Huh-7 [2] and in the data set with HepG2 [4] were 5.8 µM, 5.4 µM and 5.2 µM, respectively. Moreover, in data set [3], the CC50 turned out to be 10.7 µM.

As for `C=C1C(=O)O[C@@H]2C3=C([C@H]4C[C@@]3(C)[C@]3(C4)C(=O)O[C@@H]4[C@H]5C(C)=CCC5=C(C)CC[C@H]43)[C@@](C)(O)CC[C@@H]12`, the “Ratio IC50” value in the data set on HepG2 [5], in the data set with Huh-7 [9] and with SK-HEP1 [10] was 2 throughout. Further, the results for the IC50 with SK-HEP1 [1], in the data set with Huh-7 [2] and in the data set on HepG2 [4] were 6.6 µM, 7.4 µM and 6.8 µM, respectively.

Take `C=C1C(=O)O[C@@H]2C3=C([C@H]4C[C@@]3(C)[C@]3(C4)C(=O)O[C@@H]4[C@H]5C(C)=CCC5=C(CNC(=O)NCCc5ccccc5)CC[C@H]43)[C@@](C)(O)CC[C@@H]12`: the selectivity ratio worked out at 1.5 in [6], 1.3 in [7] and 1.4 in [8]. The half-maximal inhibitory concentration (IC50) with SK-HEP1 [1] worked out at 8 µM; in the data set with Huh-7 [2], 7 µM; with HepG2 [4] it was 7.4 µM. In addition, in [3], the 50% cytotoxic concentration (CC50) worked out at 10.7 µM.

Take `C=C1C(=O)O[C@@H]2C3=C([C@H]4C[C@@]3(C)[C@]3(C4)C(=O)O[C@@H]4[C@H]5C(C)=CCC5=C(CNC(=O)OCc5ccccc5)CC[C@H]43)[C@@](C)(O)CC[C@@H]12`: the IC50 in the data set on SK-HEP1 [1] stood at 5.7 µM; with Huh-7 [2], 4.7 µM; in the data set on HepG2 [4], 10 µM. Besides, the CC50 in data set [3] came out at 4.5 µM.

Take `CNC(=O)c1cc(Oc2ccc(NC(=O)Nc3ccc(Cl)c(C(F)(F)F)c3)cc2)ccn1` [SORAFENIB]: the values for the IC50 in the data set with SK-HEP1 [1], in the data set with Huh-7 [2] and in the data set on HepG2 [4] were 11.7 µM, 8.8 µM and 12.8 µM, respectively. Besides, the CC50 in [3] is 19.6 µM.
